Here are results for one substance from PMC11889359, “Site-Specific Competitive Kinase Inhibitor Target Profiling Using Phosphonate Affinity Tags” (Molecular & Cellular Proteomics : MCP, 2025).

pIC50, pKd: −log10 of the molar value. Like-named read-outs stand apart in the source and are kept apart here.

Assay [1] addresses T1, inosine-5′-monophosphate dehydrogenase 2 (IMPDH2) (Homo sapiens, UniProt P12268).
T1 construct: endogenous in cells; host or cells: cultured cells treated intact (A549 per the earlier reading)
The assay is described as follows: Competitive site-specific PhosID-ABPP with XO44 in intact A549 cells. To be noted: apparent IC50, competition with XO44 on lysine 450, n = 3, read-out: IC50 IMPDH2;K450. It is filed as binding. The method, then: (§1) 1e^6 cells were plated in 15 cm plates (Greiner) 3 days before treatment and kept in a humidified atmosphere with 5% CO2 at 37 °C. The growth medium was replaced by 10 ml treatment [DMEM with 0.5% FBS and 100 units/ml PS supplemented with the corresponding concentration of NVP-BHG712 (Sigma-Aldrich) or DMSO] and incubated at 37 °C, 5% CO2 for 3 h. Then, 10 μl 25 mM XO44 (PF-6808472, Sigma-Aldrich) was added directly to the medium and swirled to enable dissolution. Subsequently, the cells were incubated at 37 °C, 5% CO2 for 4 h. The samples for Supplemental Fig. S1 were generated by directly incubating with 25 μM XO44-containing growth medium for 4 h.
(§2) After treatment, the cells were washed with ice-cold DPBS and harvested using a cell scraper in 1 ml ice-cold DPBS. Then, the cell suspension was spun down at 2000g for 1 min, and the supernatant was aspirated. The cell pellet was snap-frozen in liquid nitrogen and stored at −80 °C for later use.
(§3) Cell pellets were lysed in 500 μl lysis buffer per 15 cm plate of cells, consisting of 50 mM Hepes (Sigma-Aldrich, pH 7.5), 0.5% NP-40 (Applichem), 0.2% SDS (Gen-Apex), 2 mM MgCl2 (Sigma-Aldrich), 10 mM NaCl (Merck), 1× protease inhibitor cocktail (Roche), and 0.5 μl/ml Benzonase (Millipore). Cell lysates were incubated at room temperature for 15 min to allow DNA cleavage. Cell debris and DNA were spun down for 30 min at 20,567g at 16 °C. The supernatant was collected, and the protein concentration was determined by a bicinchoninic acid assay (Thermo Fisher Scientific).
(§4) The copper(I)-catalyzed azide-alkyne cycloaddition (CuAAC) was performed on cellular lysates in 2 M urea (Merck) in 1× 50 mM Hepes (pH 7.5). CuAAC components were added in the following order: 5 mM tris(3-hydroxypropyltriazolylmethyl)amine (Lumiprobe), 2.5 mM CuSO4 5·H2O (Sigma-Aldrich), 500 μM phosphonate-azide (prepared as described in van Bergen et al., 2023 ([28])), and 25 mM sodium ascorbate (Sigma-Aldrich). Samples were incubated for 2 h at room temperature while rotating. Methanol–chloroform precipitation was performed to remove the CuAAC components, and the air-dried pellets were resuspended in 8 M urea and sonicated in a bioruptor (Diagenode) with the high amplitude setting for 10 min with cycles of 30 s on and 30 s off.
(§5) Clicked and dissolved protein samples were diluted to 4M urea with 50 mM ammonium bicarbonate (pH 8, AmBic, Sigma-Aldrich). The proteins were reduced with 4 mM DTT (Sigma-Aldrich) for 60 minutes at room temperature and alkylated in the dark using 8 mM iodoacetamide (Sigma-Aldrich) for 30 min. Residual iodoacetamide was quenched by adding DTT to a final concentration of 4 mM.
(§6) Next, samples were diluted 2× with 50 mM AmBic and digested with LysC (1:75 enzyme to protein ratio, Wako) for 4 h at 37 °C. Finally, proteins were digested overnight using Trypsin (1:50, enzyme to protein ratio, Sigma-Aldrich) at 37 °C. Proteolysis with chymotrypsin was performed similarly to the trypsin digestion, only replacing both proteolytic enzymes with α-chymotrypsin (bovine, 1:75, enzyme to protein ratio, Sigma-Aldrich) overnight at 37 °C. Digested material was desalted using 3 cc C18 Seppak cartridges (Waters) and air dried using a vacuum centrifuge.
(§7) For the digestion with pepsin, protease incubation (Porcine, 1:50, enzyme to protein ratio, Sigma-Aldrich) was performed for 4 h at 37 °C in 40 mM HCl (pH 2). Digested material was directly desalted using 3 cc C18 Seppak cartridges and air dried using a vacuum centrifuge.
(§8) Samples were dephosphorylated prior to immobilized metal affinity chromatography (IMAC) enrichment. Desalted peptides were dissolved in 1× rCutSmart buffer (pH 8, New England BioLabs) and incubated with 50 units of alkaline phosphatase (calf intestinal, QuickCIP, New England BioLabs) overnight at 37 °C while shaking. After dephosphorylation, all peptides were again desalted using 3 cc C18 Seppak cartridges and air-dried using a vacuum centrifuge. […]

Assay [2] deals with T2, neurotrophic receptor tyrosine kinase 3 (NTRK3) (Homo sapiens, UniProt Q16288).
T2 construct: endogenous in cells; host or cells: cultured cells treated intact (A549 per the earlier reading)
T2 sequence (Q16288 32-839): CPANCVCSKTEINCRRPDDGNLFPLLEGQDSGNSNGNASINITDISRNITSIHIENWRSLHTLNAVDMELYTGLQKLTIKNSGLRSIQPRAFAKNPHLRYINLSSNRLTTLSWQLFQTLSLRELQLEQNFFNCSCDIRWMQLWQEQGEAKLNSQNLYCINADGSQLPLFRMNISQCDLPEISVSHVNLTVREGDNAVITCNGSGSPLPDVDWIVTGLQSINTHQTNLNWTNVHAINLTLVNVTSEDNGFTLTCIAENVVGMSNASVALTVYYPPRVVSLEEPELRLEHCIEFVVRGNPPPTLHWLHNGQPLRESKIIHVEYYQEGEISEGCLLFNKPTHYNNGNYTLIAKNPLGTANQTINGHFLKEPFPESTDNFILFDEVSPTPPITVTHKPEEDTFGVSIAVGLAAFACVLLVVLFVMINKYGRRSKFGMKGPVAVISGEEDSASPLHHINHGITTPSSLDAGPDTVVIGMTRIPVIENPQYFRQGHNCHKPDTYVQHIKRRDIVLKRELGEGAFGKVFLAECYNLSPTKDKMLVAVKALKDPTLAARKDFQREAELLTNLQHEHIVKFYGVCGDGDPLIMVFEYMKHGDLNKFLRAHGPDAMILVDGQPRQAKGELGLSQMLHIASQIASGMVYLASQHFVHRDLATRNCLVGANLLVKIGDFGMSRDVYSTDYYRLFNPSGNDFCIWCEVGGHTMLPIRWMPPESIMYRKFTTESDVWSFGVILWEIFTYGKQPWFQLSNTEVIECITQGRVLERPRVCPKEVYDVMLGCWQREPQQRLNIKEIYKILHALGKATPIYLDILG
The description is as above. To be noted: 0.1 nM to 25 µM inhibitor, pepsin. It is filed as binding. The method, then:
as §1, §2, §3, §4, §5, §6, §7, §8

Assay [3] addresses T3, epithelial discoidin domain-containing receptor 1 (DDR1) (Homo sapiens, UniProt Q08345).
T3 construct: endogenous in cells; host or cells: cultured cells treated intact (A549 per the earlier reading)
The assay is described as above. Type of assay: binding. To be noted: apparent IC50, pepsin-based analysis, n = 3, read-out: IC50 DDR1;K655. The method, then:
as §1, §2, §3, §4, §5, §6, §7, §8

In the next assay the target is T4, MAP3K20 (Homo sapiens, UniProt Q9NYL2).
T4 construct: endogenous in cells; host or cells: cultured cells treated intact (A549 per the earlier reading)
The assay is described as above. Type of assay: binding. To be noted: apparent IC50, unique peptide, n = 3, read-out: IC50 MAP3K20;K45. The method, then: as §1, §2, §3, §4, §5, §6, §7, §8

The target of the next assay is T5, JAK1 (Homo sapiens, UniProt P23458).
T5 construct: endogenous in cells; host or cells: cultured cells treated intact (A549 per the earlier reading)
T5 sequence (P23458 whole entry): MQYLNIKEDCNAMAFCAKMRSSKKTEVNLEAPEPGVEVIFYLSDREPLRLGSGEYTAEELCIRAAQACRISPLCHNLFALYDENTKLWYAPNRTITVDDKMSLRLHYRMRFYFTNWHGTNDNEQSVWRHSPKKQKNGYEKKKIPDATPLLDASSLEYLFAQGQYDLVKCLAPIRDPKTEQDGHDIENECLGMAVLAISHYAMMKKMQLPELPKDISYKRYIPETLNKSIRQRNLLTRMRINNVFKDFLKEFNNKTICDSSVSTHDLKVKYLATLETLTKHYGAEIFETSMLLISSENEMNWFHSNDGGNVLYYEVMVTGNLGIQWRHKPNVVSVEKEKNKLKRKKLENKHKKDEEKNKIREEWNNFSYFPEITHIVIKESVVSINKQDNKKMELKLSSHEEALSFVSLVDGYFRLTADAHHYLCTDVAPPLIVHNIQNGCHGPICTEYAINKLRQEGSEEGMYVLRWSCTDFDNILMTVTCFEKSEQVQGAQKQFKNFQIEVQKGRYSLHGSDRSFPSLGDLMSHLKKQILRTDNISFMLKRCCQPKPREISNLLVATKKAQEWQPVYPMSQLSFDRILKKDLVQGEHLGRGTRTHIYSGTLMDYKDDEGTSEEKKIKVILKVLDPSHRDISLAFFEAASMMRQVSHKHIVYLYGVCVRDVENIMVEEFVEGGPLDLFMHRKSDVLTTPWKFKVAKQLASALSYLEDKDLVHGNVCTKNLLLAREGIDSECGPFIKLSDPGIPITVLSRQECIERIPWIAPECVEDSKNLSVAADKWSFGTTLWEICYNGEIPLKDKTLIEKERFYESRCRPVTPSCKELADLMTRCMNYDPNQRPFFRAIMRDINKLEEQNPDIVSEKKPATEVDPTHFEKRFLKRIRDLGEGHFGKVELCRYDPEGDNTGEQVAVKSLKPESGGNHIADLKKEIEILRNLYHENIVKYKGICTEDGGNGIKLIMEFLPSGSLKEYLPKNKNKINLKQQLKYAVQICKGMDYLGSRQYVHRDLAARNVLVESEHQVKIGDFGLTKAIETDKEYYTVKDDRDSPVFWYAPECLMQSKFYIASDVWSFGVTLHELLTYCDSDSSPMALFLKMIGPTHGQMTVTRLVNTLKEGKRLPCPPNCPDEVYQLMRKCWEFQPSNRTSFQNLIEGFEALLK
The description is as above. It is filed as binding. To be noted: 0.1 nM to 25 µM inhibitor, trypsin and pepsin. The method, then: as §1, §2, §3, §4, §5, §6, §7, §8

The target of another assay is T6, JAK2 (Homo sapiens, UniProt O60674).
T6 construct: endogenous in cells; host or cells: cultured cells treated intact (A549 per the earlier reading)
T6 sequence (O60674 whole entry): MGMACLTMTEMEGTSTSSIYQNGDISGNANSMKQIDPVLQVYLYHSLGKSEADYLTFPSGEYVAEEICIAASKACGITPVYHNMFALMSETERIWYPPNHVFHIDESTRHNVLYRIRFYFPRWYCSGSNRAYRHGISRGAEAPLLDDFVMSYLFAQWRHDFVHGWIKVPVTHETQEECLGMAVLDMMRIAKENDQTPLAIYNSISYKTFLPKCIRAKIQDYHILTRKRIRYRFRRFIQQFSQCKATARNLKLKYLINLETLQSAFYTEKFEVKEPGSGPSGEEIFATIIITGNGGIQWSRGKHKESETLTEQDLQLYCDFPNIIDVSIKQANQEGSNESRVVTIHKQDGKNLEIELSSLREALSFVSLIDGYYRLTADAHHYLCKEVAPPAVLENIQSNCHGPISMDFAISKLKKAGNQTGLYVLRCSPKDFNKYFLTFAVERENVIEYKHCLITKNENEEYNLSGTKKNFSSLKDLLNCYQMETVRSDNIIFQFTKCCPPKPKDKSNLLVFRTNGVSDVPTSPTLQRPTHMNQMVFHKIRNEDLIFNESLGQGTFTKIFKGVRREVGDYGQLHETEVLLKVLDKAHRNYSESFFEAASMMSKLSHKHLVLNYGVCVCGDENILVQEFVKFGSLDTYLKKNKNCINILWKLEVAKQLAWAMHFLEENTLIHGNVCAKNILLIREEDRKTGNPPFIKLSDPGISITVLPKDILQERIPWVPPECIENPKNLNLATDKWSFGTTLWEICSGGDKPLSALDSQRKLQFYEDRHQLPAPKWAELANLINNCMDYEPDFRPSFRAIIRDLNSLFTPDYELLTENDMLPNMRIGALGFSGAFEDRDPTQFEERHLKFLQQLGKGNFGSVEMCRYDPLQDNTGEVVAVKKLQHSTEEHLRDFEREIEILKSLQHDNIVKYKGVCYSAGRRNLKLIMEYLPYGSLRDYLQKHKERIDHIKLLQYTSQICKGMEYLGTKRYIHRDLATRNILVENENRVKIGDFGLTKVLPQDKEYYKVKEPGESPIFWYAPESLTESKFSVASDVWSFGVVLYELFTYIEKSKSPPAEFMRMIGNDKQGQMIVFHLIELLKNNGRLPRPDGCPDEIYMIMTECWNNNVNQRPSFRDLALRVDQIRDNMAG
Described as above. It is filed as binding. To be noted: 0.1 nM to 25 µM inhibitor, trypsin and pepsin. The method, then: as §1, §2, §3, §4, §5, §6, §7, §8

In assay [4] the target is EphA2. Set-up: method as in PMID 29928781. To be noted: read-out: Literature value for EphA2, microscale thermo-phoresis; cited from earlier work.
Assay [5] deals with apoptosis signal-regulating kinases 1-3 (MAP3K5/6/15). The experiment in a line: Competitive site-specific PhosID-ABPP with XO44 in intact A549 cells. Type of assay: binding, human. To be noted: apparent IC50, nonunique peptide, n = 3, read-out: IC50 MAP3K5/6/15 (nonunique peptide: MAP3K5;K709, MAP3K6;K677, MAP3K15;K681). The method, then:
as §1, §2
Cell pellets were lysed in 500 μl lysis buffer per 15 cm plate of cells, consisting of 50 mM Hepes (Sigma-Aldrich, pH 7.5), 0.5% NP-40 (Applichem), 0.2% SDS (Gen-Apex), 2 mM MgCl2 (Sigma-Aldrich), 10 mM NaCl (Merck), 1× protease inhibitor cocktail (Roche), and 0.5 μl/ml Benzonase (Millipore). […] The supernatant was collected, and the protein concentration was determined by a bicinchoninic acid assay (Thermo Fisher Scientific). […]

The next assay relates to EphB4. On the set-up: method as in PMID 20803239. To be noted: cellular autophosphorylation; cited from earlier work.
For assay [6], the target named is EphA2. On the set-up: method as in PMID 29928781. To be noted: read-out: Literature value for EphA2, kinobeads; cited from earlier work.

T3 sequence (Q08345 19-913): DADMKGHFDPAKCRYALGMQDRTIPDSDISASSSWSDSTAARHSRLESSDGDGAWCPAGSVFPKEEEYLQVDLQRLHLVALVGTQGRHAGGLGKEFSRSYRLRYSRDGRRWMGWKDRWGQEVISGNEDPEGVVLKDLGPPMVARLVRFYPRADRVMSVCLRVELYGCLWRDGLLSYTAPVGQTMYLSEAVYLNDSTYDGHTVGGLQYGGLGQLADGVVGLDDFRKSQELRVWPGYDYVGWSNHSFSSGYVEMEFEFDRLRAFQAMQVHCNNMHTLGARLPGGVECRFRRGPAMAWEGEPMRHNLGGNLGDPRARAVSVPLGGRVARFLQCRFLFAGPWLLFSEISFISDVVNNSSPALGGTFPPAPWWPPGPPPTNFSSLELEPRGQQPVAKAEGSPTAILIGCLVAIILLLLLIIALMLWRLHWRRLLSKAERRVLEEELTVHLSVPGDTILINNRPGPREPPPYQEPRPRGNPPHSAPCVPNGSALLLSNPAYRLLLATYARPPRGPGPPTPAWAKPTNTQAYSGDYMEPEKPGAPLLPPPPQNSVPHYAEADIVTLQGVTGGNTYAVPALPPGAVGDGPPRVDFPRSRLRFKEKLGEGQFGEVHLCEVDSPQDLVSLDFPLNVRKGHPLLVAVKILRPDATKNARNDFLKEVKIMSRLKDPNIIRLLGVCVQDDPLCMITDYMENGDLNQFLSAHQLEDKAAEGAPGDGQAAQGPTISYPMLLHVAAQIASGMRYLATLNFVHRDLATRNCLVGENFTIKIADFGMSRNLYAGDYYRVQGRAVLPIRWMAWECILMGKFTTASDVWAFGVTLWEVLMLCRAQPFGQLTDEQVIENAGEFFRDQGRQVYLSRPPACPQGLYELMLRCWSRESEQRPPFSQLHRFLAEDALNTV
T1 sequence (P12268 2-514 limits assumed): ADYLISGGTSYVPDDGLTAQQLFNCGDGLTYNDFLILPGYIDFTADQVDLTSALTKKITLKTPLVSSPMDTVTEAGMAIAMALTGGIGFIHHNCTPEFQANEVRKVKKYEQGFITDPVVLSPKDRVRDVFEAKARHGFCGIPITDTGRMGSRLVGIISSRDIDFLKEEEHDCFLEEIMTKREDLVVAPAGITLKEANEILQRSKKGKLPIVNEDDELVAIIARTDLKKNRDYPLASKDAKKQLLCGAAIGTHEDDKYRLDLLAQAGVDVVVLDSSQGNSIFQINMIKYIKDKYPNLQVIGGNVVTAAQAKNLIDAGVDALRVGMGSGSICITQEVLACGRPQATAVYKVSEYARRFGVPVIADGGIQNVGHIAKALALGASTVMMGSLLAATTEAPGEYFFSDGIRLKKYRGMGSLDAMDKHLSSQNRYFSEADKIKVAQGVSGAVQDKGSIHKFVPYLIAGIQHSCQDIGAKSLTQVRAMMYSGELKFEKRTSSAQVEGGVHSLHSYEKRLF

Regarding NVP-BHG712, the pIC50 in assay [1] was 5.02; in [3], 8.68; at MAP3K20 it was 5.54; in assay [5], 5.01; in the assay with EphB4, 7.60. Also, in assay [2], the “MaxLFQ signal of XO44-bound NTRK3;K572 over the concentration range” value is “stable MaxLFQ signal over the full concentration range”. For the same substance, the “Interaction with ATP-binding pocket, JAK1;K908 signal across the concentration range” value on JAK1 is recorded as “do not interact”. Also, on JAK2, the “Interaction with ATP-binding pocket, JAK2;K882 signal across the concentration range” value is listed as “do not interact”. The pKd is 7.89 at EphA2 [4] and 6.62 at EphA2 [6].
